According to patent publication US20240173312A1, “Pharmaceutical Composition Comprising a Benzoheterocyclic Compound and Androgen Receptor Pathway Modulator and Application Thereof” (KANGPU BIOPHARMACEUTICALS, LTD., priority 2015, published 2024):
Read-outs that look alike come from different tables or passages of the source.

Test system: Vcap cells (androgen receptor (+) prostate cancer cells)
Test: CTG cell proliferation assay (CellTiter-Glo)
Conditions: for viability at 0.1 µM / viability at 1 µM / viability at 10 µM: Homo sapiens, VCaP, 120 h; for Cell survival rate: notes of Table 9: 1.0 μM tested compound in combination with 1.0 μM Enzalutamide
[1] = read-out: Survival rate of Vcap cells, Table 4, tested compound alone
[2] = read-out: Survival rate of Vcap cells, Table 10, tested compound alone
[3] = read-out: Survival rate of Vcap cells, Table 10, tested compound alone, 1.0 μM
[4] = Table 10, tested compound 0.1 μM in combination with 1 μM B001
[5] = Table 10, tested compound 1.0 μM in combination with 1 μM B001
[6] = Table 10, tested compound 10 μM in combination with 1 μM B001
[7] = read-out: Survival rate of Vcap cells, Table 9, tested compound alone
[8] = read-out: Survival rate of Vcap cells, Table 9, tested compound alone, 1.0 μM
[9] = Table 9, tested compound 0.1 μM in combination with 1 μM ARN-509
[10] = Table 9, tested compound 0.1 μM in combination with 1 μM Enzalutamide
[11] = Table 9, tested compound 1.0 μM in combination with 1 μM ARN-509
[12] = Table 9, tested compound 1.0 μM in combination with 1 μM Enzalutamide
[13] = Table 9, tested compound 10 μM in combination with 1 μM ARN-509
[14] = Table 9, tested compound 10 μM in combination with 1 μM Enzalutamide

Protocol: In vitro test of the inhibition effect of the compound in combination with androgen receptor pathway modulators and the like on the prostate cancer cell proliferation.
The tested compounds were used alone or in combination with other androgen receptor pathway modulators respectively. […] After that, 100 μl of CellTiter-Glo® cell viability assay reagent (Promega, catalogue number G7570) was added to each well and mixed well on a vibrator for 10 minutes to induce cell lysis. The 96-well plate was placed at room temperature for 10 minutes, so as to stabilize its luminescence signal. A white bottom membrane was pasted on the bottom of the plate and the plate was tested using EnSpire.

CC(=O)O[C@H]1CC[C@@]2(C)C(=CC[C@@H]3[C@@H]2CC[C@]2(C)C(c4cccnc4)=CC[C@@H]32)C1 [Abiraterone acetate, reference compound]
viability at 0.1 µM [1]: 106%
viability at 1 µM (read-out: Survival rate of Vcap cells, Table 4, tested compound alone, 1 μM): 91.7%
viability at 10 µM [1]: 31.4%
viability at 0.1 µM [2]: 96.1%
viability at 1 µM [3]: 97%
viability at 10 µM [2]: 60.5%
Survival rate of Vcap cells (Table 4, tested compound alone, 1 μM): 91.7%
Survival rate of Vcap cells [4]: 79.8%
Survival rate of Vcap cells [5]: 70.5%
Survival rate of Vcap cells [6]: 66.9%

C[C@]12CC[C@H](O)CC1=CC[C@@H]1[C@@H]2CC[C@]2(C)C(c3cccnc3)=CC[C@@H]12 [Abiraterone, reference compound]
viability at 0.1 µM [2]: 98.5%
viability at 1 µM [3]: 92.4%
viability at 10 µM [2]: 81.9%
Survival rate of Vcap cells [4]: 78.9%
Survival rate of Vcap cells [5]: 74.9%
Survival rate of Vcap cells [6]: 66.3%

Nc1cccc2c1CN([C@H]1CCC(=O)NC1=O)C2=O [B002]
viability at 0.1 µM [7]: 85.6%
viability at 1 µM [8]: 79.8%
viability at 10 µM [7]: 75.9%
Survival rate of Vcap cells [9]: 52.5%
Survival rate of Vcap cells [10]: 53.9%
Survival rate of Vcap cells [11]: 44.7%
Survival rate of Vcap cells [12]: 44.7%
Survival rate of Vcap cells [13]: 44.3%
Survival rate of Vcap cells [14]: 43.1%
Cell survival rate: 44.7%

Nc1cccc2c1CN([C@@H]1CCC(=O)NC1=O)C2=O [B003]
viability at 0.1 µM [7]: 83.7%
viability at 1 µM [8]: 81.3%
viability at 10 µM [7]: 80.4%
Survival rate of Vcap cells [9]: 54.0%
Survival rate of Vcap cells [11]: 46.5%
Survival rate of Vcap cells [12]: 45.4%
Survival rate of Vcap cells [13]: 42.4%
Survival rate of Vcap cells [14]: 44.2%

[2H]C1(N2Cc3c(N)cccc3C2=O)CCC(=O)NC1=O (stereo not shown) [B004]
viability at 0.1 µM [7]: 94.1%
viability at 1 µM [8]: 88.4%
viability at 10 µM [7]: 88%
Survival rate of Vcap cells [9]: 59.1%
Survival rate of Vcap cells [10]: 60.4%
Survival rate of Vcap cells [11]: 51.2%
Survival rate of Vcap cells [12]: 50.8%
Survival rate of Vcap cells [13]: 48.0%
Survival rate of Vcap cells [14]: 51.1%
Cell survival rate: 51.2%

[2H][C@]1(N2Cc3c(N)cccc3C2=O)CCC(=O)NC1=O [B005]
viability at 0.1 µM [7]: 91.1%
viability at 1 µM [8]: 85%
viability at 10 µM [7]: 83.5%
Survival rate of Vcap cells [9]: 53.4%
Survival rate of Vcap cells [10]: 56.5%
Survival rate of Vcap cells [11]: 47.6%
Survival rate of Vcap cells [12]: 48.4%
Survival rate of Vcap cells [13]: 46.2%
Survival rate of Vcap cells [14]: 46.5%
Cell survival rate: 47.6%

[2H][C@@]1(N2Cc3c(N)cccc3C2=O)CCC(=O)NC1=O [B006]
viability at 0.1 µM [7]: 91.7%
viability at 1 µM [8]: 89.7%
viability at 10 µM [7]: 85.7%
Survival rate of Vcap cells [9]: 63.2%
Survival rate of Vcap cells [10]: 61.2%
Survival rate of Vcap cells [11]: 51.7%
Survival rate of Vcap cells [12]: 50.5%
Survival rate of Vcap cells [13]: 45.0%
Survival rate of Vcap cells [14]: 48.3%
Cell survival rate: 51.7%
